Four compounds from article PMC10223997, “Screening and Elucidation of Chemical Structures of Novel Mammalian α-Glucosidase Inhibitors Targeting Anti-Diabetes Drug from Herbals Used by E De Ethnic Tribe in Vietnam” (Pharmaceuticals, 2023) can be followed below.

One may read the IC50 as the midpoint of a concentration-inhibition curve. A lower IC50 goes with greater potency.

Converted amounts (≈) assume the structure as drawn.

The experiment deals with Rat α-Glucosidase. Briefly: Alpha-glucosidase inhibition assay (rat intestinal acetone powder, pNPG substrate). Type of experiment: biochemical. To be noted: for maximum inhibition / IC50: purified compounds and acarbose, Figure 2. On the procedure: • - Enzyme solution preparation: Enzyme solution was then sonicated 24 times, each for 12 s at 4 °C, and then centrifuged for 20 min at 10,000× g, 4 °C. The residue part was re-suspended twice with 15 mL of the same buffer (0.1 mol/L NPB, pH 7), as described above. All supernatants were mixed together and dialyzed for a half day at 4–6 °C to obtain the enzyme solution, which was then used for further analyses. • - Reaction and estimation of inhibitory activity: The enzyme inhibition assay was done according to Kwon et al. 2006 [40] with slight modification. The enzyme solution (50 µL) and the sample solution (50 µL) were mixed in 150 μL of 0.1 mol/L NPB, pH 7. This mixture was pre-incubated at 37 °C for 15 min. The reaction was started by adding 50 μL of the substrate pNPG (10 mmol/L) into this mixture solution, and this duration was kept at 37 °C for 30 min, then 325 μL of 1 mol/L Na2CO3 solution were added to terminate the reaction. This absorption of the final solution was measured at 410 nm (namely, E) using a UV spectrometer (UV-2550, Shimadzu, Japan) to estimate the enzymatic activity, and the control experiment was also conducted similarly, but instead of the inhibitor solution, 50 μL 0.1 mol/L potassium phosphate buffer (pH 7) and the absorbance was measured at 410 nm (namely, C). The inhibitory effect (%) was calculated using the equation below:
α-Glucosidase inhibition (%) = (C − E)/C × 100, where E denoted the optical density of the solution reaction in the presence of both α-glucosidase and the sample, and C is the optical density of the reaction blank.

For the compound `C[C@H]1O[C@H](O[C@H]2[C@H](O)[C@@H](O)[C@@H](O[C@H]3[C@H](O)[C@@H](O)C(O)O[C@@H]3CO)O[C@@H]2CO)[C@H](O)[C@@H](O)[C@@H]1N[C@H]1C=C(CO)[C@@H](O)[C@H](O)[C@H]1O` (stereo partly drawn) [AC, acarbose, reference compound], the maximum inhibition was 84–85%. In addition, the “Inhibition of Rat α-Glucosidase %” value (MeOH extracts of medicinal plants and acarbose, Table 1) is on record as 92%. In addition, where the note is “MeOH extracts of medicinal plants and acarbose, listed as Acarbose”, the “Inhibition of Rat α-Glucosidase IC50” value amounted to 310 µg/mL. For the same compound, the “Inhibition of Rat α-Glucosidase IC50” value (MeOH extracts of medicinal plants and acarbose, listed as acarbose) is 309 µg/mL.

In the case of `Oc1cc(O)c2c(c1)O[C@H](c1ccc(O)c(O)c1)[C@H](O)C2` [ECC, (−)-epicatechin], the maximum inhibition is on record as 84–85%.

As for `C[C@@H]1O[C@@H](Oc2cc3c(=O)oc4c(O)c(O)cc5c(=O)oc(c2O)c3c45)[C@H](O)[C@H](O)[C@H]1O` [EWC, eschweilenol C], the 50% inhibitory concentration (IC50) is 191 µg/mL (≈ 0.426 mM) and the maximum inhibition stood at 93%.

In the case of `O=C(O)c1cc(O)c(O)c(O)c1` [GA, gallic acid], the IC50 turned out to be 973 µg/mL (≈ 5.72 mM) and the maximum inhibition worked out at 80%.
